Test results: patent publication US9554979B2, “Hair care compositions and methods of use” (The Procter & Gamble Company, priority 2011, dated 2017)
Where two headings read alike, the source gives them in different places.

How the values were obtained:
[1] = Apigenin premixtures with various solubilizing agents, solubility; type: physicochemical; settings: organic solvent or mixture, thermodynamic from solid
Method: According to another embodiment of the invention, a process for preparing a hair care composition includes mixing apigenin and a solubilizing agent at a temperature sufficient to allow dissolution of the apigenin in the solubilizing agent to form a premixture; combining the premixture with an aqueous carrier to form the hair care composition; and optionally, adjusting the pH of the hair care composition with acid to within a range from about 3 to about 10. The premixture is prepared by combining apigenin and one or more solubilizing agents. Solubilization energy (e.g., stiffing, sonication, milling, heat, etc.) may be applied to accelerate the dissolution process. For example, a premixture of apigenin in triethanolamine may be prepared by combining apigenin and triethanolamine in a single vessel and heating the mixture to 70° C. while stirring until a clear solution results. According to one aspect of the exemplary method of making the premixture, the combined apigenin and triethanolamine are mixed at 50-100 rpm using a IKA RET CV-S1 mixer. According to another aspect, the combination is mixed at 300-500 rpm using a IKA Eurostar PWR CV-S1 mixer.

[2] = Experimentally observed apigenin solubility in solubilizing agents and solvents; type: physicochemical
Description: Non-limiting examples of solubilizing agents, which have suitable Hansen Solubility Parameters and may be used to solubilize apigenin include triethanolamine (CAS No. 102-71-6); diethanolamine (CAS No. 203-868-0); ethanolamine (CAS No. 141-43-5); N-methylformamide (CAS No. 123-39-7); 2-dimethylaminoethanol (CAS No. 203-542-8); 2-dimethylamino-2-propanol (108-16-7); ethylenediamine (CAS No. 107-15-3); 2-amino-2-methyl-1-propanol (CAS No. 124-68-5); laurocapram (CAS No. 59227-89-3); and dimethyl capramide (Spectrasolv, CAS No. 14433-76-2). Non-limiting examples of solvents, which have suitable Hansen Solubility Parameters and may be used in combination with one or more solubilizing agents include dipropyleneglycol (CAS No. 110-98-5); propylene glycol (Hydrolite™ 5, CAS No. […]); butylene glycol (CAS No. 107-88-0); 1,4-butanediol (CAS No. 110-63-4); 3-allyloxy-1,2-propanediol (CAS No. 123-34-2); dipropylene glycol n-butyl ether (CAS No. 29911-28-2); 1,2-hexanediol (CAS No. 6920-22-5); dimethyl isosorbide (Arlasolve™ CAS No. 5306-85-4); ethanol (CAS No. 64-17-5); 1,3-butanediol (CAS No. 107-88-0); 1,3-propanediol (CAS No. 504-63-2); 2,2′-thiodiethanol (CAS No. 111-48-8); and 1,6-hexanediol (CAS No. 629-11-8). Table 2 provides a summary of various solubilizing agents and solvents and their respective HSP values, along with experimentally observed apigenin solubility.

[3] = Qualitative experimental solubility scoring of apigenin in 32 solvents; type: physicochemical; parameters: key: 1 = Completely Dissolved; 2 = Very Swollen; 3 = Swollen; 4 = Slightly Swollen; 5 = Hardly Swollen; 6 = Not touched; — = Assignment Unclear
Method: (§1) HSPs and the solubility sphere for apigenin are optimized using the fitting method in the software HSPIP version 3.1.06 from Charles M. Hansen Consulting, Hørsholm, Denmark, hansen-solubility.com. Qualitative experimental solubilities for apigenin in 32 diverse potential solvents are determined using the scoring system at the bottom of Table 1. In the fitting function within HSPiP, solvents with scores of 1 and those with scores of 2-5 are categorized as “good” and “bad” solvents, respectively. […] Because the radius can be unbounded, fits with radii larger than 95% of the radius distribution are removed from these 50 trials (≦8.5 MPa^0.5). • 2. Determine the ranges for δD, δP, δH for the remaining fits. • 3. Locate the fit closest to this point using the Ra equation above. • 4. Chose the values for δD, δP, δH from Step 2 for the HSP's and the value of Ra from Step 3 for the radius.

[4] = in water and nearly all solvents suitable for pharmaceutical, cosmetic, and food additive formulations (practically insoluble); cited from earlier work
[5] = Hansen Solubility Parameter fitting for apigenin (HSPiP); settings: fitted in HSPiP v. 3.1.06 from solubility scores in 32 solvents
Method: as §1
Using this protocol, apigenin HSP values and solvent radius are determined to be δD=18.7, δP=13.5, δH=13.9 and Ra=6.8 (all in MPa^0.5). This sphere defines the initial region encompassing solvents into which apigenin will be soluble. (Note HSPiP v. 3.1.06 is used herein to determine all HSPs by 1) lookup if available within the program's internal database; 2) estimation if not in the database using the Y-MB method; or 3) via the procedure described above (apigenin only).)

**Q.** What does the source list for O=c1cc(-c2ccc(O)cc2)oc2cc(O)cc(O)c12 [apigenin, 5,7-dihydroxy-2-(4-hydroxyphenyl)-4H-1-benzopyran-4-one]?
**A.** solubility ([1]; 1-Dimethylamino-2-propanol solution, in 1-Dimethylamino-2-propanol solution, room temp, 300 rpm): 20.2 mg/mL; solubility ([1]; 1-dimethylamino-2-propanol, in 1-Dimethylamino-2-propanol solution, room temp, 1500 sm): 20 mg/mL; solubility ([1]; 1-dimethylamino-2-propanol/TEA, in 1-Dimethylamino-2-propanol/TEA, room temp, 300-810 rpm): 17.3 mg/mL; solubility ([1]; 1-dimethylamino-2-propanol/ethanolamine, in 1-Dimethylamino-2-propanol/Ethanolamine, room temp, 300 rpm): 16.6 mg/mL; solubility ([1]; 1-dimethylamino-2-propanol/ethanolamine/TEA, in 1-Dimethylamino-2-propanol/Ethanolamine/TEA, room temp, 300-500 rpm): 16.5 mg/mL; solubility ([1]; 1-dimethylamino-2-propanol/ethylenediamine, in 1-Dimethylamino-2-propanol/Ethylenediamine, room temp, 400-600 rpm): 20.1 mg/mL; solubility ([1]; 1-methylimidazole, 82 °C, in 1-Methylimidazole, 100 rpm): 20.4 mg/mL; solubility ([1]; 2-amino-2-methyl-1-propanol, 71 °C, in 2-amino-2-methyl-1-propanol, 400 rpm): 20 mg/mL; solubility ([1]; 2-amino-2-methyl-1-propanol, 71 °C, in 2-amino-2-methyl-1-propanol, 450 rpm): 14.8 mg/mL; solubility ([1]; 2-dimethylaminoethanol, 29 °C, in 2-Dimethylaminoethanol, 300 rpm): 19.9 mg/mL; solubility ([1]; 2-dimethylaminoethanol, in 2-Dimethylaminoethanol, room temp, 300 rpm): 20.2 mg/mL; solubility ([1]; Dimethyl capramide, in Dimethyl capramide, Room temp, 400 rpm): 16 mg/mL; solubility ([1]; N-methylformamide, 101 °C, in N-Methylformamide, 400 rpm): 13.7 mg/mL; solubility ([1]; TEA (triethanolamine), 169 °C, in TEA, 450 rpm (synthetic apigenin)): 14.7 mg/mL; solubility ([1]; TEA (triethanolamine), in TEA, room temp, 450-590 rpm): 20 mg/mL; solubility ([1]; TEA/1-Dimethylamino-2-propanol, in TEA/1-Dimethylamino-2-propanol, room temp, 350-450 rpm): 17 mg/mL; solubility ([1]; TEA/1-Dimethylamino-2-propanol/Ethylenediamine, in TEA/1-Dimethylamino-2-propanol/Ethylenediamine, room temp, 330-600 rpm): 20.6 mg/mL; solubility ([1]; TEA/2-Dimethylaminoethanol/1-Dimethylamino-2-propanol, in TEA/2-Dimethylaminoethanol/1-Dimethylamino-2-propanol, room temp, 330-400, 1500 sm): 15 mg/mL; solubility ([1]; TEA/2-Dimethylaminoethanol/1-Dimethylamino-2-propanol, in TEA/2-Dimethylaminoethanol/1-Dimethylamino-2-propanol, room temp, 1500 sm): 15 mg/mL; solubility ([1]; Triethylene glycol, 156 °C, in Triethylene glycol, 300 rpm): 6.11 mg/mL; solubility ([1]; diethanolamine, 128 °C, in Diethanolamine, 550 rpm): 20.2 mg/mL; solubility ([1]; ethanolamine, 29 °C, in Ethanolamine, 350-500 rpm): 20.1 mg/mL; solubility ([1]; ethanolamine, 76 °C, in Ethanolamine, 300 rpm): 20.3 mg/mL; solubility ([1]; ethanolamine, 76 °C, in Ethanolamine, 400 rpm (synthetic apigenin)): 20.2 mg/mL; solubility ([1]; ethanolamine, in Ethanolamine, room temp, 350-740 rpm): 20.2 mg/mL; solubility ([1]; ethanolamine/TEA, 29 °C, in Ethanolamine/TEA, 300-600 rpm): 18 mg/mL; solubility ([1]; ethanolamine/TEA, in Ethanolamine/TEA, room temp, 350-500 rpm): 16 mg/mL; solubility ([1]; ethylenediamine, 28 °C, in Ethylenediamine, 320 rpm): 20 mg/mL; solubility ([1]; ethylenediamine, in Ethylenediamine, room temp, 320 rpm): 20.2 mg/mL; solubility ([1]; laurocapram, 98%, 140 °C, in Laurocapram, 500-600 rpm): 14 mg/mL; solubility ([1]; laurocapram, 98%, in Laurocapram, room temp, 500-600 rpm): 13.9 mg/mL; solubility ([1]; pyridine, in Pyridine, room temp, 300 rpm): 15.8 mg/mL; Experimental solubility ([2]; in 1,2-hexanediol at 90 C.): 0.4% at 90 C.; Experimental solubility ([2]; in 1,3-butanediol at 98 C.): 1.52% at 98 C.; Experimental solubility ([2]; in 1,3-propanediol at 100 C.): 0.73% at 100 C.; Experimental solubility ([2]; in 1,4-butanediol at 110 C.): 1.0% at 110 C.; Experimental solubility ([2]; in 1,6-Hexanediol at 137 C.): 4.12% at 137 C.; Experimental solubility ([2]; in 2,2′-thiodiethanol at 103 C.): 0.47% at 103 C.; Experimental solubility ([2]; in 2-amino-2-methyl-1-propanol at 71 C.): 20.03% at 71 C.; Experimental solubility ([2]; in 2-dimethylamino-2-propanol (CAS 108-16-7) at 21 C.): 20.18% at 21 C.; Experimental solubility ([2]; in 2-dimethylaminoethanol at 29 C.): 19.95% at 29 C.; Experimental solubility ([2]; in 3-allyloxy-1,2-propanediol at 120 C.): 1.0% at 120 C.; Experimental solubility ([2]; in Dimethyl capramide at RT): 16.0% at RT; Experimental solubility ([2]; in Ethanol at 21 C. and 50 C.): 0.32% at 21 C. and 50 C.; Experimental solubility ([2]; in Laurocapram at 21 C.): 13.0% at 21 C.; Experimental solubility ([2]; in N-methylformamide): Ppt upon cooling; Experimental solubility ([2]; in butylene glycol at 98 C.): 1.52% at 98 C.; Experimental solubility ([2]; in diethanolamine at 128 C.): 20.25% at 128 C.; Experimental solubility ([2]; in dimethyl isosorbide at 100 C.): 1.54% at 100 C.; Experimental solubility ([2]; in dipropylene glycol n-butyl ether at 90 C.): 0.6% at 90 C.; Experimental solubility ([2]; in dipropyleneglycol at 115 C.): 2.19% at 115 C.; Experimental solubility ([2]; in ethanolamine at 76 C.): 20.31% at 76 C.; Experimental solubility ([2]; in ethylenediamine at 28 C.): 20.03% at 28 C.; Experimental solubility ([2]; in propylene glycol (CAS 5343-92-0) at 100 C.): 0.62% at 100 C.; Experimental solubility ([2]; in triethanolamine at 165 C.): 12.7% at 165 C.; Solubility Score ([3]; in 1,4-Dioxane): 5; Solubility Score ([3]; in 1-Butanol): 4; Solubility Score ([3]; in 2-Phenoxy Ethanol): 4; Solubility Score ([3]; in 2-Propanol): 4; Solubility Score ([3]; in Acetone): 5; Solubility Score ([3]; in Acetonitrile): 5; Solubility Score ([3]; in Carbon Tetrachloride): 6; Solubility Score ([3]; in Chloroform): 5; Solubility Score ([3]; in Cyclohexane): 6; Solubility Score ([3]; in Cyclohexanol): 4; Solubility Score ([3]; in Cyclohexanone): 4; Solubility Score ([3]; in Diacetone Alcohol): 4; Solubility Score ([3]; in Dichloromethane): 5; Solubility Score ([3]; in Dimethyl Formamide (DMF)): 1; Solubility Score ([3]; in Dimethyl Sulfoxide (DMSO)): 1; Solubility Score ([3]; in Ethyl Acetate): 5; Solubility Score ([3]; in Hexane): 6; Solubility Score ([3]; in Methanol): 4; Solubility Score ([3]; in Methyl Ethyl Ketone (MEK)): 5; Solubility Score ([3]; in Methyl Isobutyl Ketone (MIBK)): 5; Solubility Score ([3]; in N-Methyl-2-Pyrrolidone (NMP)): 1; Solubility Score ([3]; in N-methylformamide): 1; Solubility Score ([3]; in Propylene Carbonate): 5; Solubility Score ([3]; in Propylene Glycol Monomethyl Ether): 2; Solubility Score ([3]; in Propylene Glycol Monomethyl Ether Acetate): 5; Solubility Score ([3]; in Tetrahydrofuran (THF)): 4; Solubility Score ([3]; in Toluene): 6; Solubility Score ([3]; in gamma-Butyrolactone (GBL)): 4; Solubility Score ([3]; in n-Butyl Acetate): 5; Solubility Score ([3]; in n-Butyl Acrylate): 5; Solubility Score ([3]; in p-Xylene): 6; solubility [4]: less than 1 mg/ml; HSP δD (dispersion-force component) [5]: 18.7 MPa^0.5; HSP δH (hydrogen-bonding component) [5]: 13.9 MPa^0.5; HSP δP (polar component) [5]: 13.5 MPa^0.5; solvent radius Ra [5]: 6.8 MPa^0.5
